How the values were obtained:
Type in all cases: in vivo
corn (Zea mays) = assay: Test B pre-/postemergence plant response
Text: (§1) Seeds of plant species selected from blackgrass (Alopecurus myosuroides), downy bromegrass (Bromus tectorum), green foxtail (Setaria viridis), Italian ryegrass (Lolium multiflorum), wheat (Triticum aestivum), wild oat (Avena fatua), deadnettle (henbit deadnettle, Lamium amplexicaule), galium (catchweed bedstraw, Galium aparine), bermudagrass (Cynodon dactylon), Surinam grass (Brachiaria decumbens), cocklebur (Xanthium strumarium), corn (Zea mays), large crabgrass (Digitaria sanguinalis), woolly cupgrass (Eriochloa villosa), giant foxtail (Setaria faberii), goosegrass (Eleusine indica), johnsongrass (Sorghum halepense), kochia (Kochia scoparia), lambsquarters (Chenopodium album), morningglory (Ipomoea coccinea), nightshade (eastern black nightshade, Solanum ptycanthum), yellow nutsedge (Cyperus esculentus), pigweed (Amaranthus retroflexus), ragweed (common ragweed, Ambrosia elatior), Russian thistle (Salsola kali), soybean (Glycine max), sunflower (common oilseed sunflower, Helianthus annuus) and velvetleaf (Abutilon theophrasti) were planted into a blend of loam soil and sand and treated preemergence with test compounds formulated in a non-phytotoxic solvent mixture which included a surfactant.
(§2) At the same time, plants selected from these crop and weed species and also winter barley (Hordeum vulgare), canarygrass (Phalaris minor), chickweed (Stellaria media) and windgrass (Apera spica-venti) were planted in pots containing Redi-Earth® planting medium (Scotts Company, 14111 Scottslawn Road, Marysville, Ohio 43041) comprising spaghnum peat moss, vermiculite, wetting agent and starter nutrients and treated with postemergence applications of some of the test chemicals formulated in the same manner. Plants ranged in height from 2 to 18 cm (1- to 4-leaf stage) for postemergence treatments.
(§3) Treated plants and controls were maintained in a greenhouse for 13 to 15 days, after which time all treated plants were visually evaluated and compared to controls. Plant response ratings, summarized in Table B, are based on a scale of 0 to 100 where 0 is no effect and 100 is complete control. A dash (-) response means no test result.

[1] = tested on: cocklebur (Xanthium strumarium); assay: Test B pre-/postemergence plant response
Text: as §1, §2, §3

wild oat (Avena fatua) = assay: Test B pre-/postemergence plant response
Text: as §1, §2, §3

[2] = tested on: blackgrass (Alopecurus myosuroides); assay: Test B pre-/postemergence plant response
Text: as §1, §2, §3

[3] = tested on: pigweed (Amaranthus retroflexus); assay: Test B pre-/postemergence plant response
Text: as §1, §2, §3

[4] = tested on: downy bromegrass (Bromus tectorum); assay: Test B pre-/postemergence plant response
Text: as §1, §2, §3

[5] = tested on: giant foxtail (Setaria faberii); assay: Test B pre-/postemergence plant response
Text: as §1, §2, §3

[6] = tested on: Surinam grass (Brachiaria decumbens); assay: Test B pre-/postemergence plant response
Text: as §1, §2, §3

[7] = tested on: morningglory (Ipomoea coccinea); assay: Test B pre-/postemergence plant response
Text: as §1, §2, §3

[8] = tested on: Italian ryegrass (Lolium multiflorum); assay: Test B pre-/postemergence plant response
Text: as §1, §2, §3

[9] = tested on: chickweed (Stellaria media); assay: Test B postemergence plant response; conditions: Postemergence; for Chickweed plant response rating: 250 g ai/ha, scale 0 to 100
Summary of the method: (§4)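 Visual ratings from 0 (no effect) to 100 (complete control), made against controls 13–15 days after treatment, kept in a greenhouse. Compounds were applied postemergence to potted plants at the 1- to 4-leaf stage (2–18 cm).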

[10] = tested on: windgrass (Apera spica-venti); assay: Test B postemergence plant response; conditions: Postemergence
Summary of the method: as §4

[11] = tested on: canarygrass (Phalaris minor); assay: Test B postemergence plant response; conditions: Postemergence; for Canarygrass plant response rating: 250 g ai/ha, scale 0 to 100
Summary of the method: as §4

[12] = 250 g ai/ha, Preemergence, 0 to 100 scale
[13] = Postemergence, 31 g ai/ha, scale 0 to 100 (0 no effect, 100 complete control)
[14] = Postemergence, 62 g ai/ha, scale 0 (no effect) to 100 (complete control), 13 to 15 days
[15] = Postemergence, 125 g ai/ha, visual rating after 13 to 15 days, scale 0 (no effect) to 100 (complete control)
[16] = Postemergence, 250 g ai/ha, scale 0 to 100
[17] = Preemergence, 31 g ai/ha, scale 0 to 100 (0 no effect, 100 complete control)
[18] = Preemergence, 62 g ai/ha, scale 0 to 100 (0 no effect, 100 complete control)
[19] = Preemergence, 125 g ai/ha, 0 to 100 scale
[20] = 31 g ai/ha, scale 0 to 100 (0 no effect, 100 complete control)
[21] = 62 g ai/ha, scale 0 (no effect) to 100 (complete control), 13 to 15 days
[22] = 125 g ai/ha, visual rating after 13 to 15 days, scale 0 (no effect) to 100 (complete control)

O=C1CCCC(O)=C1C(=O)c1cnc(-c2ccccc2)n(-c2ccccc2F)c1=O [Compound 26]
Plant response rating, Corn (corn (Zea mays); [12]): 0 | Plant response rating, Corn (corn (Zea mays); [13]): 35 | Plant response rating, Corn (corn (Zea mays); [14]): 35 | Plant response rating, Corn (corn (Zea mays); [15]): 40 | Corn plant response rating (corn (Zea mays); [16]): 50 | Plant response rating, Corn (corn (Zea mays); [17]): 0 | Plant response rating, Corn (corn (Zea mays); [18]): 0 | Corn plant response rating (corn (Zea mays); [19]): 0 | Plant response rating, Cocklebur [1, 12]: 98 | Plant response rating, Cocklebur [1, 13]: 80 | Plant response rating, Cocklebur [1, 14]: 80 | Plant response rating, Cocklebur [1, 15]: 95 | Cocklebur plant response rating [1, 16]: 100 | Plant response rating, Cocklebur [1, 17]: 10 | Plant response rating, Cocklebur [1, 18]: 40 | Cocklebur plant response rating [1, 19]: 85 | Plant response rating, Oat, Wild (wild oat (Avena fatua); [12]): 5 | Plant response rating, Oat, Wild (wild oat (Avena fatua); [13]): 40 | Plant response rating, Oat, Wild (wild oat (Avena fatua); [14]): 40 | Plant response rating, Oat, Wild (wild oat (Avena fatua); [15]): 45 | Oat, Wild plant response rating (wild oat (Avena fatua); [16]): 60 | Plant response rating, Oat, Wild (wild oat (Avena fatua); [17]): 0 | Plant response rating, Oat, Wild (wild oat (Avena fatua); [18]): 0 | Oat, Wild plant response rating (wild oat (Avena fatua); [19]): 0 | Plant response rating, Blackgrass [2, 12]: 10 | Plant response rating, Blackgrass [2, 13]: 0 | Plant response rating, Blackgrass [2, 14]: 0 | Plant response rating, Blackgrass [2, 15]: 10 | Blackgrass plant response rating [2, 16]: 40 | Plant response rating, Blackgrass [2, 17]: 0 | Plant response rating, Blackgrass [2, 18]: 0 | Blackgrass plant response rating [2, 19]: 0 | Plant response rating, Pigweed [3, 12]: 100 | Plant response rating, Pigweed [3, 13]: 50 | Plant response rating, Pigweed [3, 14]: 80 | Plant response rating, Pigweed [3, 15]: 85 | Pigweed plant response rating [3, 16]: 98 | Plant response rating, Pigweed [3, 17]: 98 | Plant response rating, Pigweed [3, 18]: 100 | Pigweed plant response rating [3, 19]: 100 | Plant response rating, Bromegrass, Downy [4, 12]: 10 | Plant response rating, Bromegrass, Downy [4, 13]: 10 | Plant response rating, Bromegrass, Downy [4, 14]: 15 | Plant response rating, Bromegrass, Downy [4, 15]: 20 | Bromegrass, Downy plant response rating [4, 16]: 40 | Plant response rating, Bromegrass, Downy [4, 17]: 0 | Plant response rating, Bromegrass, Downy [4, 18]: 0 | Bromegrass, Downy plant response rating [4, 19]: 0 | Plant response rating, Foxtail, Giant [5, 12]: 90 | Plant response rating, Foxtail, Giant [5, 13]: 60 | Plant response rating, Foxtail, Giant [5, 14]: 60 | Plant response rating, Foxtail, Giant [5, 15]: 70 | Foxtail, Giant plant response rating [5, 16]: 95 | Plant response rating, Foxtail, Giant [5, 17]: 5 | Plant response rating, Foxtail, Giant [5, 18]: 10 | Foxtail, Giant plant response rating [5, 19]: 45 | Plant response rating, Surinam Grass [6, 12]: 90 | Plant response rating, Surinam Grass [6, 13]: 30 | Plant response rating, Surinam Grass [6, 14]: 40 | Plant response rating, Surinam Grass [6, 15]: 60 | Surinam Grass plant response rating [6, 16]: 60 | Plant response rating, Surinam Grass [6, 17]: 0 | Plant response rating, Surinam Grass [6, 18]: 5 | Surinam Grass plant response rating [6, 19]: 90 | Plant response rating, Morningglory [7, 12]: 100 | Plant response rating, Morningglory [7, 13]: 50 | Plant response rating, Morningglory [7, 14]: 50 | Plant response rating, Morningglory [7, 15]: 75 | Morningglory plant response rating [7, 16]: 75 | Plant response rating, Morningglory [7, 17]: 100 | Plant response rating, Morningglory [7, 18]: 100 | Morningglory plant response rating [7, 19]: 100 | Plant response rating, Ryegrass, Italian [8, 12]: 0 | Plant response rating, Ryegrass, Italian [8, 13]: 0 | Plant response rating, Ryegrass, Italian [8, 14]: 0 | Plant response rating, Ryegrass, Italian [8, 15]: 10 | Ryegrass, Italian plant response rating [8, 16]: 45 | Plant response rating, Ryegrass, Italian [8, 17]: 0 | Plant response rating, Ryegrass, Italian [8, 18]: 0 | Ryegrass, Italian plant response rating [8, 19]: 0 | Plant response rating, Chickweed [9, 20]: 40 | Plant response rating, Chickweed [9, 21]: 50 | Plant response rating, Chickweed [9, 22]: 85 | Chickweed plant response rating [9]: 85 | Plant response rating, Windgrass [10, 20]: 10 | Plant response rating, Windgrass [10, 21]: 30 | Plant response rating, Windgrass [10, 22]: 40 | Windgrass plant response rating ([10]; 250 g ai/ha, scale 0 to 100): 60 | Plant response rating, Canarygrass [11, 20]: 20 | Plant response rating, Canarygrass [11, 21]: 30 | Plant response rating, Canarygrass [11, 22]: 50 | Canarygrass plant response rating [11]: 60

Cc1cccc(Cl)c1-n1c(-c2ccccc2)ncc(C(=O)C2=C(O)CCCC2=O)c1=O [Compound 46]
Plant response rating, Corn (corn (Zea mays); [12]): 0 | Plant response rating, Corn (corn (Zea mays); [13]): 20 | Plant response rating, Corn (corn (Zea mays); [14]): 35 | Plant response rating, Corn (corn (Zea mays); [15]): 60 | Corn plant response rating (corn (Zea mays); [16]): 75 | Plant response rating, Corn (corn (Zea mays); [17]): 0 | Plant response rating, Corn (corn (Zea mays); [18]): 0 | Corn plant response rating (corn (Zea mays); [19]): 0 | Plant response rating, Cocklebur [1, 12]: 15 | Plant response rating, Cocklebur [1, 13]: 75 | Plant response rating, Cocklebur [1, 14]: 80 | Plant response rating, Cocklebur [1, 15]: 80 | Cocklebur plant response rating [1, 16]: 90 | Plant response rating, Cocklebur [1, 17]: 0 | Plant response rating, Cocklebur [1, 18]: 0 | Cocklebur plant response rating [1, 19]: 0 | Plant response rating, Oat, Wild (wild oat (Avena fatua); [12]): 0 | Plant response rating, Oat, Wild (wild oat (Avena fatua); [14]): 5 | Plant response rating, Oat, Wild (wild oat (Avena fatua); [15]): 20 | Plant response rating, Oat, Wild (wild oat (Avena fatua); [17]): 0 | Oat, Wild plant response rating (wild oat (Avena fatua); [19]): 0 | Plant response rating, Blackgrass [2, 12]: 0 | Plant response rating, Blackgrass [2, 13]: 0 | Plant response rating, Blackgrass [2, 14]: 5 | Plant response rating, Blackgrass [2, 15]: 10 | Blackgrass plant response rating [2, 16]: 10 | Plant response rating, Blackgrass [2, 17]: 0 | Plant response rating, Blackgrass [2, 18]: 0 | Blackgrass plant response rating [2, 19]: 0 | Plant response rating, Pigweed [3, 12]: 100 | Plant response rating, Pigweed [3, 14]: 75 | Plant response rating, Pigweed [3, 15]: 80 | Plant response rating, Pigweed [3, 17]: 85 | Pigweed plant response rating [3, 19]: 95 | Plant response rating, Bromegrass, Downy [4, 12]: 0 | Plant response rating, Bromegrass, Downy [4, 13]: 0 | Plant response rating, Bromegrass, Downy [4, 14]: 5 | Plant response rating, Bromegrass, Downy [4, 15]: 10 | Bromegrass, Downy plant response rating [4, 16]: 25 | Plant response rating, Bromegrass, Downy [4, 17]: 0 | Plant response rating, Bromegrass, Downy [4, 18]: 0 | Bromegrass, Downy plant response rating [4, 19]: 0 | Plant response rating, Foxtail, Giant [5, 12]: 25 | Plant response rating, Foxtail, Giant [5, 13]: 70 | Plant response rating, Foxtail, Giant [5, 14]: 80 | Plant response rating, Foxtail, Giant [5, 15]: 80 | Foxtail, Giant plant response rating [5, 16]: 85 | Plant response rating, Foxtail, Giant [5, 17]: 0 | Plant response rating, Foxtail, Giant [5, 18]: 0 | Foxtail, Giant plant response rating [5, 19]: 15 | Plant response rating, Surinam Grass [6, 12]: 90 | Plant response rating, Surinam Grass [6, 14]: 75 | Plant response rating, Surinam Grass [6, 15]: 80 | Plant response rating, Surinam Grass [6, 17]: 0 | Surinam Grass plant response rating [6, 19]: 75 | Plant response rating, Morningglory [7, 12]: 0 | Plant response rating, Morningglory [7, 14]: 30 | Plant response rating, Morningglory [7, 15]: 45 | Plant response rating, Morningglory [7, 17]: 0 | Plant response rating, Morningglory [7, 18]: 0 | Morningglory plant response rating [7, 19]: 0 | Plant response rating, Ryegrass, Italian [8, 12]: 0 | Plant response rating, Ryegrass, Italian [8, 14]: 5 | Plant response rating, Ryegrass, Italian [8, 15]: 5 | Plant response rating, Ryegrass, Italian [8, 17]: 0 | Ryegrass, Italian plant response rating [8, 19]: 0 | Plant response rating, Chickweed [9, 20]: 80 | Plant response rating, Chickweed [9, 21]: 95 | Plant response rating, Chickweed [9, 22]: 95 | Chickweed plant response rating [9]: 98 | Plant response rating, Windgrass [10, 21]: 10 | Plant response rating, Windgrass [10, 22]: 15 | Plant response rating, Canarygrass [11, 20]: 0 | Plant response rating, Canarygrass [11, 21]: 0 | Plant response rating, Canarygrass [11, 22]: 0 | Canarygrass plant response rating [11]: 0
